# Data as given in paper PMC11161644, “An effective and rapidly degradable disinfectant from disinfection byproducts” (Nature Communications, 2024).
# Several values for one entry are separate records, joined by “and”; a condition that tells them apart may be missing. Equal entries are not always repeated.
# Key:
# [1] = Real-time stability testing of 2,6-DCQ (solid form, 2-propanol solution); format: physicochemical; conditions: for Time remaining stable: room temperature
# Experimental: According to the U.S. Food and Drug Administration guidance, 2,6-DCQ in solid form or solution form (using 2-propanol as the solvent, a common ingredient in antiseptic liquids and hand sanitizers) was kept at room temperature (22 ± 1 °C) and 65 ± 5% of relative humidity for stability testing. The concentrations of 2,6-DCQ at different storage times were determined by an Agilent HPLC equipped with a UV detector at 280 nm. A disinfectant product is considered stable for a certain storage time if its concentration remains ≥90% of the initial concentration.
# [2] = Acute oral toxicity, Hodge and Sterner toxicity scale; conditions: in vivo, rat, inferred from LD10 of ref 49
# Source text: The lethal dose 10% (LD 10; the dose at which 10% of the individuals die)
# [3] = Degradation of 2,6-DCQ in phosphate-buffered ultrapure water (pH 8.2) in darkness; format: physicochemical
# Experimental: For the stability of 2,6-DCQ in aquatic environments, we used seawater because seawater
# investigate the effect of chloride ions on the stability of 2,6-DCQ, we have conducted the
# degradation experiments of 2,6-DCQ in seawater (pH 8.2) and ultrapure water (added with 4 mM
# phosphate buffer at pH 8.2) in darkness.
# Lines 185–188 in the revision-marked manuscript, “We also investigated the effect of the high
# chloride level in seawater on the degradation of 2,6-DCQ in darkness.
# [4] = system: freshwater fish; design: method as in earlier work; conditions: USEPA; cited from earlier work
SMILES,Time remaining stable ([1]; in 2-propanol),Time remaining stable ([1]; solid form),"C/C0 ([1]; solid form, storage time 0 month)","C/C0 ([1]; solid form, storage time 16 month)","C/C0 ([1]; solid form, storage time 36 month)","C/C0 ([1]; solution form (2-propanol), storage time 0 month)","C/C0 ([1]; solution form (2-propanol), storage time 2.5 month)","C/C0 ([1]; solution form (2-propanol), storage time 7 month)","C/C0 ([1]; solution form (2-propanol), storage time 10 month)","C/C0 ([1]; solution form (2-propanol), storage time 12.5 month)",LD50 [2],"Ln (C/C0) ([3]; pH 8.2 in phosphate-buffered water, darkness, 0 h)","Effect of chloride ions on degradation ([3]; seawater vs phosphate-buffered water, pH 8.2, darkness)",Toxicity rating to freshwater fish [4]
"O=C1C=C(Cl)C(=O)C(Cl)=C1 [2,6-DCQ, 2,6-dichlorobenzoquinone]",over 7 months,over 36 months,1,1.072 and 1.01,1.029 and 1.0188,1,0.9898,0.9151,0.8855,0.8301,≥ 1000 mg/kg,0,no discernible effect,
"Cc1cc(O)cc(C)c1Cl [PCMX, para-chloro-meta-xylenol, reference compound]",,,,,,,,,,,,,,highly toxic
